PMC10831447 (Molecular Cancer Therapeutics, 2023)

Columns and labels:
A549 p53 KO [1] = test: Colony formation assay; assay type: cell-based, human; conditions: isogenic A549 TP53 KO; 1E−05, 2.5E−06, 5E−07 mol/L
A549 wild-type [2] = test: Colony formation assay; assay type: cell-based, human; conditions: 1E−05, 2.5E−06, 5E−07 mol/L
[3] = cited from earlier work
A549 p53 KO [4] = test: Cell-cycle analysis by FACS; assay type: cell-based, human; conditions: A549 TP53 KO; M8891 1E−06 mol/L, nutlin-3A 3E−06 mol/L
A549 wild-type [5] = test: Cell-cycle analysis by FACS; assay type: cell-based, human; conditions: A549 parental; 24 hours; M8891 1E−06 mol/L, nutlin-3A 3E−06 mol/L
25 RCC PDX models = test: RCC PDX in vivo study, all models; set-up: species or system mouse

CO[C@@H]1[C@H](OC(=O)NC(=O)CCl)CC[C@]2(CO2)[C@H]1[C@@]1(C)O[C@@H]1CC=C(C)C [TNP-470]
colony formation (A549 p53 KO [1]): resistant | colony formation (A549 wild-type [2]): blocked | elimination [3]: rapid elimination | side effects [3]: neurologic side effects

COc1ccc(C2=N[C@@H](c3ccc(Cl)cc3)[C@@H](c3ccc(Cl)cc3)N2C(=O)N2CCNC(=O)C2)c(OC(C)C)c1 [nutlin-3A]
shift in cell-cycle distribution (A549 p53 KO [4]): not observed | colony formation (A549 p53 KO [1]): resistant | colony formation (A549 wild-type [2]): significantly reduced colony formation | cell-cycle distribution (A549 wild-type [5]): more prominent arrest in G2–M

CCN(CC)CCNC(=O)c1c(C)[nH]c(/C=C2\C(=O)Nc3ccc(F)cc32)c1C [Sunitinib]
integrated survival analysis based on RTV changes (AUC) (25 RCC PDX models; across all 25 PDX models): clear survival benefit | antitumor activity in cohort of 25 RCC PDX models (25 RCC PDX models; dose and schedule tested in this study): moderate
